Assay results reported in patent publication US20250325562A1, “Intravenous Ganaxolone Formulations and Methods of Use in Treating Status Epilepticus and Other Seizure Disorders” (MARINUS PHARMACEUTICALS, INC., priority 2015, published 2025).

Tests used:
[1] = in vivo; cited from earlier work
[2] = system: pilocarpine induced status epilepticus (SE); experiment: Pilocarpine-induced status epilepticus in rats, cortical EEG power; format: in vivo, Male Sprague-Dawley rats; set-up: key to Treatment effect on EEG power vs vehicle, significance: * P < 0.05; ** P < 0.01; *** P < 0.001; **** P < 0.0001; ns = not significant; conditions: 15 mg/kg IV
Procedure: This study was designed to determine the ability of a CAPTISOL-ganaxolone (GNX) formulation administered intravenously (IV) at 12 and 15 mg/kg to inhibit pilocarpine induced status epilepticus (SE). Allopregnanolone (Allo) (15 mg/kg; IV) was also evaluated for comparison. In this study, test drugs were administered either 15 or 60 minutes after onset of SE and compared to vehicle (30% Captisol).
Cortical EEG activity was recorded in rats before and after administration of pilocarpine to induce SE. Animals were pre-treated with LiCl to enhance and improve reliability of seizure induction and scopolamine to reduce peripheral cholinergic side effects of pilocarpine. EEG activity was recorded for 5 h after SE onset, and anticonvulsant activity was assessed by determining changes in EEG power over frequency ranges from 0.3 to 96 Hz.
Male Sprague-Dawley rats were used for the studies. Rats were surgically implanted with EEG electrodes and jugular vein catheters. The mean weight at the time of recording was 321+3 g (269-351 g).
EEG electrodes were surgically implanted in anesthetized rats. Animals were also treated with an anti-inflammatory anaelgesic (RIMADYL, (carprofen)) prior to surgery and a subcutaneous local anesthetic. Stainless steel screw electrodes chronically were implanted in the skull (0-80×¼″, Plastics-One, Roanoke, VA) such that the ends of the screws were flush with the inner skull surface. One electrode was located 3.0 mm anterior to bregma and 2 mm to the left of midline, and the second 4.0 mm posterior to bregma and 2.5 mm to the right of midline. The skull surface around the electrodes was sealed with super glue and dental acrylic, and the EEG electrode lead wires were inserted into a plastic pedestal mounted on the skull using dental acrylic. Wound edges were treated with triple antibiotic cream (bacitracin zinc, neomycin sulfate, polymyxin B sulfate; Walgreens). Following surgery, animals were administered antibiotic (ampicillin, 50 mg/kg IP at 0.4 mL/kg) and also received a chewable dose (˜10 mg) of Rimadyl following surgery. The animals were allowed to recover from EEG surgery for 1 week.
Rats were implanted with jugular-vein catheters (JVC) one week following EEG surgery. Rats were administered an anti-inflammatory/analgesic and then anesthetized and placed in a supine position. An incision was made in the skin on the right ventrolateral aspect of the neck to expose the external jugular vein which was then dissected free of surrounding fascia. A ligature was tied around the vein anteriorly to occlude blood flow returning to the heart. A second ligature was loosely tied around the vein posteriorly to create tension on the vessel during venotomy and catheter insertion. After incising the vein, a PE catheter (3Fr) was inserted into the vein and advanced approximately 30 mm towards the heart, positioning the tip at the junction of the precava and right atrium. After confirming patency of the catheter by blood withdrawal, the posterior ligature was tied off, and the catheter flushed with a “heparin-lock” solution (5 units heparin/ml saline) and plugged with a sterilized stainless steel pin. The catheter was then exteriorized by tunneling through the subcutaneous tissue to exit posterior to the head between the shoulder blades. Lastly, after suturing the catheter to the skin, all wounds were closed using sutures or wound clips. Immediately following surgery, the animals were awakened to assess catheter patency. Animals also received a chewable dose (˜10 mg) of Rimadyl following surgery to minimize pain and inflammation.
Animals were allowed a 1-week recovery time following JVC surgery. Jugular vein catheters were flushed daily with a 0.1 mL of heparin solution (5 units/mL) to maintain patency. On the day of surgery, the flushing solution contained ampicillin sulbactam (50 mg/kg). […]

CC(=O)[C@H]1CC[C@H]2[C@@H]3CC[C@H]4C[C@H](O)CC[C@]4(C)[C@H]3CC[C@]12C [Allopregnanolone]
half-life [1]: very short
reduction in SE ([2]; 60′ dosing delay, 0-5 and 5-10 Hz): strong reduction in SE in the first 15′ after dosing
Treatment effect on EEG power vs vehicle, significance ([2]; 15 min post SE onset, 0-5 Hz, 0-15 min. post drug): **** (**** P < 0.0001)
Treatment effect on EEG power vs vehicle, significance ([2]; 15 min post SE onset, 0-5 Hz, 1-2 hrs post drug): *** (*** P < 0.001)
Treatment effect on EEG power vs vehicle, significance ([2]; 15 min post SE onset, 0-5 Hz, 2-3 hrs post drug): * (* P < 0.05)
Treatment effect on EEG power vs vehicle, significance ([2]; 15 min post SE onset, 0-5 Hz, 3-5 hrs post drug): ns
Treatment effect on EEG power vs vehicle, significance ([2]; 15 min post SE onset, 0-5 Hz, 15-30 min post drug): **** (**** P < 0.0001)
Treatment effect on EEG power vs vehicle, significance ([2]; 15 min post SE onset, 0-5 Hz, 30-60 min post drug): **** (**** P < 0.0001)
Treatment effect on EEG power vs vehicle, significance ([2]; 15 min post SE onset, 5-10 Hz, 0-15 min. post drug): **** (**** P < 0.0001)
Treatment effect on EEG power vs vehicle, significance ([2]; 15 min post SE onset, 5-10 Hz, 1-2 hrs post drug): *** (*** P < 0.001)
Treatment effect on EEG power vs vehicle, significance ([2]; 15 min post SE onset, 5-10 Hz, 2-3 hrs post drug): ns
Treatment effect on EEG power vs vehicle, significance ([2]; 15 min post SE onset, 5-10 Hz, 3-5 hrs post drug): ns
Treatment effect on EEG power vs vehicle, significance ([2]; 15 min post SE onset, 5-10 Hz, 15-30 min post drug): **** (**** P < 0.0001)
Treatment effect on EEG power vs vehicle, significance ([2]; 15 min post SE onset, 5-10 Hz, 30-60 min post drug): **** (**** P < 0.0001)
Treatment effect on EEG power vs vehicle, significance ([2]; 15 min post SE onset, 10-30 Hz, 0-15 min. post drug): **** (**** P < 0.0001)
Treatment effect on EEG power vs vehicle, significance ([2]; 15 min post SE onset, 10-30 Hz, 1-2 hrs post drug): ** (** P < 0.01)
Treatment effect on EEG power vs vehicle, significance ([2]; 15 min post SE onset, 10-30 Hz, 2-3 hrs post drug): ns
Treatment effect on EEG power vs vehicle, significance ([2]; 15 min post SE onset, 10-30 Hz, 3-5 hrs post drug): ns
Treatment effect on EEG power vs vehicle, significance ([2]; 15 min post SE onset, 10-30 Hz, 15-30 min post drug): **** (**** P < 0.0001)
Treatment effect on EEG power vs vehicle, significance ([2]; 15 min post SE onset, 10-30 Hz, 30-60 min post drug): *** (*** P < 0.001)
Treatment effect on EEG power vs vehicle, significance ([2]; 15 min post SE onset, 30-50 Hz, 0-15 min. post drug): **** (**** P < 0.0001)
Treatment effect on EEG power vs vehicle, significance ([2]; 15 min post SE onset, 30-50 Hz, 1-2 hrs post drug): ns
Treatment effect on EEG power vs vehicle, significance ([2]; 15 min post SE onset, 30-50 Hz, 2-3 hrs post drug): ns
Treatment effect on EEG power vs vehicle, significance ([2]; 15 min post SE onset, 30-50 Hz, 3-5 hrs post drug): ns
Treatment effect on EEG power vs vehicle, significance ([2]; 15 min post SE onset, 30-50 Hz, 15-30 min post drug): **** (**** P < 0.0001)
Treatment effect on EEG power vs vehicle, significance ([2]; 15 min post SE onset, 30-50 Hz, 30-60 min post drug): *** (*** P < 0.001)
Treatment effect on EEG power vs vehicle, significance ([2]; 15 min post SE onset, 50-70 Hz, 0-15 min. post drug): *** (*** P < 0.001)
Treatment effect on EEG power vs vehicle, significance ([2]; 15 min post SE onset, 50-70 Hz, 1-2 hrs post drug): ns
Treatment effect on EEG power vs vehicle, significance ([2]; 15 min post SE onset, 50-70 Hz, 2-3 hrs post drug): ns
Treatment effect on EEG power vs vehicle, significance ([2]; 15 min post SE onset, 50-70 Hz, 3-5 hrs post drug): ns
Treatment effect on EEG power vs vehicle, significance ([2]; 15 min post SE onset, 50-70 Hz, 15-30 min post drug): *** (*** P < 0.001)
Treatment effect on EEG power vs vehicle, significance ([2]; 15 min post SE onset, 50-70 Hz, 30-60 min post drug): ** (** P < 0.01)
Treatment effect on EEG power vs vehicle, significance ([2]; 15 min post SE onset, 70-96 Hz, 0-15 min. post drug): *** (*** P < 0.001)
Treatment effect on EEG power vs vehicle, significance ([2]; 15 min post SE onset, 70-96 Hz, 1-2 hrs post drug): ns
Treatment effect on EEG power vs vehicle, significance ([2]; 15 min post SE onset, 70-96 Hz, 2-3 hrs post drug): ns
Treatment effect on EEG power vs vehicle, significance ([2]; 15 min post SE onset, 70-96 Hz, 3-5 hrs post drug): ns
Treatment effect on EEG power vs vehicle, significance ([2]; 15 min post SE onset, 70-96 Hz, 15-30 min post drug): *** (*** P < 0.001)
Treatment effect on EEG power vs vehicle, significance ([2]; 15 min post SE onset, 70-96 Hz, 30-60 min post drug): ** (** P < 0.01)
reduction in SE ([2]; 15 minutes post-seizure onset): strong reduction in SE up to 1 h post dosing
Treatment effect on EEG power vs vehicle, significance ([2]; 60 min post SE onset, 0-5 Hz, 0-15 min. post drug): ** (** P < 0.01)
Treatment effect on EEG power vs vehicle, significance ([2]; 60 min post SE onset, 0-5 Hz, 1-2 hrs post drug): ns
Treatment effect on EEG power vs vehicle, significance ([2]; 60 min post SE onset, 0-5 Hz, 2-3 hrs post drug): ns
Treatment effect on EEG power vs vehicle, significance ([2]; 60 min post SE onset, 0-5 Hz, 3-5 hrs post drug): ns
Treatment effect on EEG power vs vehicle, significance ([2]; 60 min post SE onset, 0-5 Hz, 15-30 min post drug): ns
Treatment effect on EEG power vs vehicle, significance ([2]; 60 min post SE onset, 0-5 Hz, 30-60 min post drug): Ns
Treatment effect on EEG power vs vehicle, significance ([2]; 60 min post SE onset, 5-10 Hz, 0-15 min. post drug): ** (** P < 0.01)
Treatment effect on EEG power vs vehicle, significance ([2]; 60 min post SE onset, 5-10 Hz, 1-2 hrs post drug): ns
Treatment effect on EEG power vs vehicle, significance ([2]; 60 min post SE onset, 5-10 Hz, 2-3 hrs post drug): ns
Treatment effect on EEG power vs vehicle, significance ([2]; 60 min post SE onset, 5-10 Hz, 3-5 hrs post drug): ns
Treatment effect on EEG power vs vehicle, significance ([2]; 60 min post SE onset, 5-10 Hz, 15-30 min post drug): ns
Treatment effect on EEG power vs vehicle, significance ([2]; 60 min post SE onset, 5-10 Hz, 30-60 min post drug): Ns
Treatment effect on EEG power vs vehicle, significance ([2]; 60 min post SE onset, 10-30 Hz, 0-15 min. post drug): ns
Treatment effect on EEG power vs vehicle, significance ([2]; 60 min post SE onset, 10-30 Hz, 1-2 hrs post drug): ns
Treatment effect on EEG power vs vehicle, significance ([2]; 60 min post SE onset, 10-30 Hz, 2-3 hrs post drug): ns
Treatment effect on EEG power vs vehicle, significance ([2]; 60 min post SE onset, 10-30 Hz, 3-5 hrs post drug): ns
Treatment effect on EEG power vs vehicle, significance ([2]; 60 min post SE onset, 10-30 Hz, 15-30 min post drug): ns
Treatment effect on EEG power vs vehicle, significance ([2]; 60 min post SE onset, 10-30 Hz, 30-60 min post drug): Ns
Treatment effect on EEG power vs vehicle, significance ([2]; 60 min post SE onset, 30-50 Hz, 0-15 min. post drug): ns
Treatment effect on EEG power vs vehicle, significance ([2]; 60 min post SE onset, 30-50 Hz, 1-2 hrs post drug): ns
Treatment effect on EEG power vs vehicle, significance ([2]; 60 min post SE onset, 30-50 Hz, 2-3 hrs post drug): ns
Treatment effect on EEG power vs vehicle, significance ([2]; 60 min post SE onset, 30-50 Hz, 3-5 hrs post drug): ns
Treatment effect on EEG power vs vehicle, significance ([2]; 60 min post SE onset, 30-50 Hz, 15-30 min post drug): ns
Treatment effect on EEG power vs vehicle, significance ([2]; 60 min post SE onset, 30-50 Hz, 30-60 min post drug): Ns
Treatment effect on EEG power vs vehicle, significance ([2]; 60 min post SE onset, 50-70 Hz, 0-15 min. post drug): ns
Treatment effect on EEG power vs vehicle, significance ([2]; 60 min post SE onset, 50-70 Hz, 1-2 hrs post drug): ns
Treatment effect on EEG power vs vehicle, significance ([2]; 60 min post SE onset, 50-70 Hz, 2-3 hrs post drug): ns
Treatment effect on EEG power vs vehicle, significance ([2]; 60 min post SE onset, 50-70 Hz, 3-5 hrs post drug): ns
Treatment effect on EEG power vs vehicle, significance ([2]; 60 min post SE onset, 50-70 Hz, 15-30 min post drug): ns
Treatment effect on EEG power vs vehicle, significance ([2]; 60 min post SE onset, 50-70 Hz, 30-60 min post drug): Ns
Treatment effect on EEG power vs vehicle, significance ([2]; 60 min post SE onset, 70-96 Hz, 0-15 min. post drug): ns
Treatment effect on EEG power vs vehicle, significance ([2]; 60 min post SE onset, 70-96 Hz, 1-2 hrs post drug): ns
Treatment effect on EEG power vs vehicle, significance ([2]; 60 min post SE onset, 70-96 Hz, 2-3 hrs post drug): ns
Treatment effect on EEG power vs vehicle, significance ([2]; 60 min post SE onset, 70-96 Hz, 3-5 hrs post drug): ns
Treatment effect on EEG power vs vehicle, significance ([2]; 60 min post SE onset, 70-96 Hz, 15-30 min post drug): ns
Treatment effect on EEG power vs vehicle, significance ([2]; 60 min post SE onset, 70-96 Hz, 30-60 min post drug): Ns
